Measured values: ChEMBL document CHEMBL1759842, “Discovery of non-glucoside SGLT2 inhibitors” (Bioorg Med Chem Lett, 2011)

Columns and labels:
[1] = biological target: T1, Sodium/glucose cotransporter 2 (Mus musculus, UniProt Q923I7); experiment: Inhibition of mouse SGLT2 expressed in CHO cells assessed as inhibition of [14C]-alpha-methyl-D-glucopyranoside transport after 60 mins by scintillation counting; format: cell-based
T1 sequence (Q923I7 whole entry): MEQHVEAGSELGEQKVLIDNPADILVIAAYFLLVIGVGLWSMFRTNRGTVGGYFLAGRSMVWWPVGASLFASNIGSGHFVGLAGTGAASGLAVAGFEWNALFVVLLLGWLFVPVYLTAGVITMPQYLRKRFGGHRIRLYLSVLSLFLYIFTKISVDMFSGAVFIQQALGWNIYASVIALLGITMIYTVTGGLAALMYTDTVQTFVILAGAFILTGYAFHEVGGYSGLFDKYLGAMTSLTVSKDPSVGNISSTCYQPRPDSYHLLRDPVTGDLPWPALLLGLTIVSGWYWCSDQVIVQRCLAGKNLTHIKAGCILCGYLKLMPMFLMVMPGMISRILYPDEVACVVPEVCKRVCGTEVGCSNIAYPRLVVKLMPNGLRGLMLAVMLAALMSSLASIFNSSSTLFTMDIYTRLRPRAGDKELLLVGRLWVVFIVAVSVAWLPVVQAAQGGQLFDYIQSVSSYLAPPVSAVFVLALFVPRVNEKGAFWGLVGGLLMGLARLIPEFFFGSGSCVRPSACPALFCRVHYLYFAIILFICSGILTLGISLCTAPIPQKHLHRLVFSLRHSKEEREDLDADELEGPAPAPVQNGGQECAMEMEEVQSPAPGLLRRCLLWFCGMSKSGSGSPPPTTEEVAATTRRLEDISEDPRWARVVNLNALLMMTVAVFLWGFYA

[2] = biological target: T2, Sodium/glucose cotransporter 2 (Homo sapiens, UniProt P31639); experiment: Inhibition of human SGLT2 expressed in CHO cells assessed as inhibition of [14C]-alpha-methyl-D-glucopyranoside transport after 60 mins by scintillation counting; format: cell-based
T2 sequence (P31639 whole entry): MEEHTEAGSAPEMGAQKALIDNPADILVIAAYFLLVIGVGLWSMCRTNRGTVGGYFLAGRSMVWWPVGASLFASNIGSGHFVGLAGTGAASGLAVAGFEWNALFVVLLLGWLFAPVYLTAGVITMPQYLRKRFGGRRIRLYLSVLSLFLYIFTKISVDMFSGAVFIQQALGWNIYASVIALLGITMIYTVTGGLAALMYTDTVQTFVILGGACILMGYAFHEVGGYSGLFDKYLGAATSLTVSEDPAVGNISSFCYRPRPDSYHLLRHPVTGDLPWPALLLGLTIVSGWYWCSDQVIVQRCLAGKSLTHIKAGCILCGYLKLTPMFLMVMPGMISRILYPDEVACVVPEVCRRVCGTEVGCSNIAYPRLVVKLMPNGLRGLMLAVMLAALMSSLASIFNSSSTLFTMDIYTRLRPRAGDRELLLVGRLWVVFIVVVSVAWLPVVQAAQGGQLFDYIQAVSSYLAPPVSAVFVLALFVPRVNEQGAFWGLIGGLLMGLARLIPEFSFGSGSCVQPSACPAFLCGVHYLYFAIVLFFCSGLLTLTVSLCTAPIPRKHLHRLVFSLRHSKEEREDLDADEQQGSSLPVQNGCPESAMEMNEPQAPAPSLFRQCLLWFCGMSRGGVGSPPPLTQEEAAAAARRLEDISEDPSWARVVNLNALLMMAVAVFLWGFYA

IC50 [1]: 1200 nM | IC50 [2]: 1400 nM
Compound: Cn1c(CN2C(=O)CSc3ccc(C(F)(F)F)cc32)nnc1SCc1ccc(Cl)cc1
